Data reported in patent US8609671B2, “Method of inhibiting hepatic fibrosis as a result of liver replacement or repair using A2B adenosine receptor antagonists” (Gilead Sciences, Inc., priority 2006, dated 2013).
Entries after “also recorded” stand apart in the source; their conditions may differ.

How the values were obtained:
HHSCs [1] = assay: Measurement of cAMP accumulation in HHSCs; type: cell-based, human; settings: for effect of agonist on cellular cAMP accumulation: with rolipram 50 μM, 15 min, CGS-21680 (=10 μM); for effect on forskolin-induced cellular cAMP accumulation: agonist 1 μM, forskolin 10 μM
Protocol: (§1) Primary cultured normal human hepatic stellate Cells (HHSCs) were obtained from ScienCell Research Laboratories (San Diego, Calif.) and cultured using stellate cell growth medium (ScienCell Research Laboratories). HHSCs were routinely grown in a humidified incubator with 5% CO2 at 37° C. and reseeded when they reached about 80-90% confluency. Each re-seeding is called a passage. Cells from passages 2 to 5 were used in the following studies.
Cells were harvested using 0.0025% trypsin and 2 mM EDTA in PBS, washed and resuspended in phenol-free DMEM to a concentration of 1×10^6 cells/ml, and then incubated with 1 U/ml of ADA for 30 min at room temperature. Cells were then treated with AdoR agonists, antagonists, and forskolin in the presence of 50 μM of the phosphodiesterase IV inhibitor, rolipram. After incubating for 15 min at 37° C., cells were lysed and cAMP concentrations were determined using cAMP-Screen Direct™ System (Applied Biosystems) according to the manufacturer's instructions.

HHSCs [2] = assay: IL-6 release by HHSCs (ELISA); type: cell-based, human; set-up: maximal increase of IL-6 release over the basal level: concentration or dose not given beside the values
Protocol: as §1
(§2) HHSCs were seeded into 12-well tissue culture plates at a density of 1×10^5 cells/well in stellate cell growth medium and allowed to adhere overnight and reach ˜90% confluency. Cells were washed twice in HEPES buffered saline, and cultured in DMEM containing various agonists or antagonists of AdoRs for 1 or 24 h.
(§3) The concentration of IL-6 in the cell medium was determined using ELISA kits obtained from Biosource (Camarillo, Calif.) according to the manufacturer's instructions. The minimal detection levels of IL-6 with these kits were 2 pg/ml. The concentration of soluble collagen in the cell medium was measured using the Sircol collagen assay (Biocolor Ltd., Belfast N. Ireland) according to manufacture's instructions. The activity of AST in mouse plasma was determined using the Infinity™ AST assay (Thermo Electron Corporation, Waltham, Mass.)

HHSCs [3] = assay: mRNA levels of α-smooth muscle actin and α-1 pro-collagen in HHSCs (real-time RT-PCR); type: cell-based, human; settings: NECA 10 μM, 1 h
Protocol: HHSCs were seeded into 12-well tissue culture plates at a density of 1×10^5 cells/well in stellate cell growth medium and allowed to adhere overnight and reach ˜90% confluency. Cells were washed twice in HEPES buffered saline, and cultured in DMEM containing various agonists or antagonists of AdoRs for 1 or 24 h. Total RNA was extracted from HHSCs using the Stratagene Absolutely RNA™ RT-PCR Miniprep Kit followed by DNase treatment to eliminate potential genomic DNA contamination. Real-time RT-RCR for adenosine receptors was performed as previously described in Zhong et al. (2004) Am J Respir Cell Mol Biol; 30(1):118-125. The specific primers for α-smooth muscle actin used were: while the primers for α-1 pro-collagen were: and each of these primers were designed using Primer Express 2.0 (Applied Biosystems) following the recommended guidelines based on sequences from Genbank. At the end of the PCR cycle, a dissociation curve was generated to ensure the amplification of a single product, and the threshold cycle time (Ct value) for each gene was determined. Relative mRNA levels were calculated based on the Ct values, normalized to β-actin in the same sample, and presented as percentages of β-actin mRNA. Measurement of cAMP Accumulation

HHSCs [4] = assay: Collagen production by HHSCs (Sircol collagen assay); type: cell-based, human; settings: 24 h
Protocol: as §2, §3

[5] = molecular target: T1, Human A3 adenosine receptor (Homo sapiens, UniProt P0DMS8); settings: read-out: affinity for A3 receptor (Ki); cited from earlier work
T1 construct: expressed in transfected cells; host or cells: CHO (CHO-A3), membrane preparation
T1 sequence (P0DMS8 1-318): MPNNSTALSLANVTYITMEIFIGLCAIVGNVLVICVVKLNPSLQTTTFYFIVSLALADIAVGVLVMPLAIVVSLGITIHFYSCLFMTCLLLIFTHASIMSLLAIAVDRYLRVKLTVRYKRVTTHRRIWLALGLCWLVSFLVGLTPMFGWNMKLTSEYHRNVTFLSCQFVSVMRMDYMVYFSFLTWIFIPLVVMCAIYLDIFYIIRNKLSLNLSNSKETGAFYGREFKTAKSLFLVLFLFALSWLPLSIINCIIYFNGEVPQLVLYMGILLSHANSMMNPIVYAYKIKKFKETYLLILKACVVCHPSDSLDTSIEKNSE

[6] = molecular target: T2, Human A1 adenosine receptor (Homo sapiens, UniProt P30542); settings: read-out: affinity for A1 receptor (Ki); cited from earlier work
T2 sequence (P30542 1-326): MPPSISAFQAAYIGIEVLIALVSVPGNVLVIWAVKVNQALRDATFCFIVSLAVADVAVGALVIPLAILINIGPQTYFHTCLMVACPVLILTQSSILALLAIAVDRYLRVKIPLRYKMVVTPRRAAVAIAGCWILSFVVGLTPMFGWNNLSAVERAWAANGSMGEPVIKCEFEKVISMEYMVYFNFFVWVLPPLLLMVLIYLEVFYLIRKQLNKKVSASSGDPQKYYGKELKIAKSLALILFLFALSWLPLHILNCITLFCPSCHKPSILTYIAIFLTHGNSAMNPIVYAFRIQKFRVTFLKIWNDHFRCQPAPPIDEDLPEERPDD

[7] = molecular target: T3, Human A2A adenosine receptor (Homo sapiens, UniProt P29274); settings: read-out: affinity for A2A receptor (Ki); cited from earlier work
T3 construct: expressed in transfected cells; host or cells: HEK-293 (HEK-A2A), membrane preparation

ADA^−/− mice = assay: Plasma AST levels in ADA-deficient mice; type: in vivo; settings: 1 mg/kg per injection i.p. morning and evening for 17 days, vs vehicle
Protocol: as §3
Adenosine deaminase (ADA)-deficient mice were generated and genotyped as described in Blackburn et al. (1998), J Biol Chem, 273(9):5093-5100. Mice homozygous for the null Ada allele were designated ADA-deficient (ADA^−/−), while mice heterozygous for the null Ada allele were designated as ADA control mice (ADA^+). All mice were on a mixed 129sv/C57BL/6J background and all phenotypic comparisons were performed amongst littermates. Animal care was in accordance with institutional and NIH guidelines. Mice were housed in ventilated cages equipped with microisolator lids and maintained under strict containment protocols. No evidence of bacterial, parasitic, or fungal infection was found, and serologies on cage littermates were negative for 12 of the most common murine viruses. […]

T3 sequence (P29274 whole entry): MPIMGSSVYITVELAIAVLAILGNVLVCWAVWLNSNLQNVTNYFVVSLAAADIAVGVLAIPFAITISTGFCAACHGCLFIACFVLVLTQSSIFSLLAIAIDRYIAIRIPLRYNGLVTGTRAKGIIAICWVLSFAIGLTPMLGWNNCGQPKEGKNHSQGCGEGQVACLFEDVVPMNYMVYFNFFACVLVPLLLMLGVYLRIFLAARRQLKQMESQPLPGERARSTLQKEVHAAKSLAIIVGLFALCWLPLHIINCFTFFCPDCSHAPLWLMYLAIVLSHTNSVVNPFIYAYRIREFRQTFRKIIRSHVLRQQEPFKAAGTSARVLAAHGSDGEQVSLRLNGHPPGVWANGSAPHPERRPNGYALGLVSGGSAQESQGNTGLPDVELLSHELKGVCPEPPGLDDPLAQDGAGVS

For `CCNC(=O)[C@H]1O[C@@H](n2cnc3c(N)nc(NCCc4ccc(CCC(=O)O)cc4)nc32)[C@H](O)[C@@H]1O` [CGS-21680], the “effect of agonist on cellular cAMP accumulation” value (HHSCs [1]) was “did not cause a significant increase”.
For `OC[C@H]1O[C@@H](n2cnc3c(NC4CCCC4)ncnc32)[C@H](O)[C@@H]1O` [CPA, N6-cyclopentyladenosine], the “effect on forskolin-induced cellular cAMP accumulation” value (HHSCs [1]) was “Lack of effect; also recorded: failed to inhibit”.
In the case of `CNC(=O)[C@H]1O[C@@H](n2cnc3c(NCc4cccc(I)c4)ncnc32)[C@H](O)[C@@H]1O` [IB-MECA], the “effect on forskolin-induced cellular cAMP accumulation” value (HHSCs [1]) is reported as “Lack of effect; also recorded: failed to inhibit”.
For `CCNC(=O)[C@H]1O[C@@H](n2cnc3c(N)ncnc32)[C@H](O)[C@@H]1O` [NECA, 5′-(N-ethylcarboxamido)-adenosine], the “maximal increase of IL-6 release over the basal level” value (HHSCs [2]) was 11.9±3.1 fold, the “effect on IL-6 release” value (HHSCs [2]; 24 h) was “increased IL-6 release in a concentration-dependent manner” and the “increase of IL-6 release compared to vehicle-treated cells” value (HHSCs [2]; NECA 100 μM, 24 h) was 11.9±3.1 fold. The “expression of α-1 pro-collagen mRNA” value (HHSCs [3]) was “significantly increased”, the “expression of α-smooth muscle actin mRNA” value (HHSCs [3]) was “significantly increased” and the “release of soluble collagen” value (HHSCs [4]) was “increased; also recorded: significant increase”. The “effect of agonist on cellular cAMP accumulation” value (HHSCs [1]) was “increased cellular cAMP accumulation in a concentration-dependent manner”.
For `Nc1ncnc2c1ncn2[C@@H]1O[C@H](CO)[C@@H](O)[C@H]1O` [adenosine], the “maximal increase of IL-6 release over the basal level” value (HHSCs [2]) was 11.9±3.1 fold and the “effect on IL-6 release” value (HHSCs [2]; 24 h) was “increased IL-6 release in a concentration-dependent manner”.
In the case of `CCCn1c(=O)[nH]c2nc(-c3cnn(Cc4noc(-c5ccc(Cl)cc5)n4)c3)[nH]c2c1=O` [compound (1), 8-(1-{[5-(4-chlorophenyl)(1,2,4-oxadiazol-3-yl)]methyl}pyrazol-4-yl)-1-propyl-1,3,7-trihydropurine-2,6-dione], the Ki [5] is listed as > 5 µM, the “reduction of NECA-increased IL-6 release” value (HHSCs [2]; compound 1 μM together with NECA 10 μM) is listed as 90.7±0.1% and the “effect on NECA-induced collagen production” value (HHSCs [4]; NECA 10 μM) is listed as “abolished”. The Ki [6] was > 5 µM, the Ki [7] was > 5 µM and the “effect on NECA-induced cellular cAMP accumulation” value (HHSCs [1]; antagonist 1 μM) was “significantly attenuated”.
For `CCCn1c(=O)c2[nH]c(-c3cnn(Cc4cccc(C(F)(F)F)c4)c3)nc2n(CC)c1=O` [compound (2), 3-ethyl-1-propyl-8-(1-{[3-(trifluoromethyl)phenyl]methyl}pyrazol-4-yl)-1,3,7-trihydropurine-2,6-dione], the “plasma AST levels” value (ADA^−/− mice) was “significant reduction”.
